# Patent US10377753B2, “Substituted 4-azaindoles and their use as GluN2B receptor modulators” (Janssen Pharmaceutica NV, priority 2015, dated 2019)
# pIC50: −log10 of the molar value.
# Target: cloned human NR1/NR2B ion channels (Homo sapiens (Human), UniProt Q05586+Q13224)
# Assay: HNR2BC: effects of test articles on cloned human NR1/NR2B ion channels expressed in mammalian cells (FLIPR calcium flux)
# Type: cell-based
# Settings: cloned human NR1/NR2B ion channels, Table 5
# Summary of the method: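 In a stable Tet-On-induced cell line expressing human GluN1/GluN2B, Calcium 5-loaded cells were preincubated 5 min with compound, then stimulated 5 min with glutamate at ~EC80 plus 10 μM glycine, in pH 7.4 HEPES buffer. FLIPR calcium fluorescence was normalized to control wells.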
# Sequence of cloned human NR1/NR2B ion channels (Q13224 27-1484, other chains not shown): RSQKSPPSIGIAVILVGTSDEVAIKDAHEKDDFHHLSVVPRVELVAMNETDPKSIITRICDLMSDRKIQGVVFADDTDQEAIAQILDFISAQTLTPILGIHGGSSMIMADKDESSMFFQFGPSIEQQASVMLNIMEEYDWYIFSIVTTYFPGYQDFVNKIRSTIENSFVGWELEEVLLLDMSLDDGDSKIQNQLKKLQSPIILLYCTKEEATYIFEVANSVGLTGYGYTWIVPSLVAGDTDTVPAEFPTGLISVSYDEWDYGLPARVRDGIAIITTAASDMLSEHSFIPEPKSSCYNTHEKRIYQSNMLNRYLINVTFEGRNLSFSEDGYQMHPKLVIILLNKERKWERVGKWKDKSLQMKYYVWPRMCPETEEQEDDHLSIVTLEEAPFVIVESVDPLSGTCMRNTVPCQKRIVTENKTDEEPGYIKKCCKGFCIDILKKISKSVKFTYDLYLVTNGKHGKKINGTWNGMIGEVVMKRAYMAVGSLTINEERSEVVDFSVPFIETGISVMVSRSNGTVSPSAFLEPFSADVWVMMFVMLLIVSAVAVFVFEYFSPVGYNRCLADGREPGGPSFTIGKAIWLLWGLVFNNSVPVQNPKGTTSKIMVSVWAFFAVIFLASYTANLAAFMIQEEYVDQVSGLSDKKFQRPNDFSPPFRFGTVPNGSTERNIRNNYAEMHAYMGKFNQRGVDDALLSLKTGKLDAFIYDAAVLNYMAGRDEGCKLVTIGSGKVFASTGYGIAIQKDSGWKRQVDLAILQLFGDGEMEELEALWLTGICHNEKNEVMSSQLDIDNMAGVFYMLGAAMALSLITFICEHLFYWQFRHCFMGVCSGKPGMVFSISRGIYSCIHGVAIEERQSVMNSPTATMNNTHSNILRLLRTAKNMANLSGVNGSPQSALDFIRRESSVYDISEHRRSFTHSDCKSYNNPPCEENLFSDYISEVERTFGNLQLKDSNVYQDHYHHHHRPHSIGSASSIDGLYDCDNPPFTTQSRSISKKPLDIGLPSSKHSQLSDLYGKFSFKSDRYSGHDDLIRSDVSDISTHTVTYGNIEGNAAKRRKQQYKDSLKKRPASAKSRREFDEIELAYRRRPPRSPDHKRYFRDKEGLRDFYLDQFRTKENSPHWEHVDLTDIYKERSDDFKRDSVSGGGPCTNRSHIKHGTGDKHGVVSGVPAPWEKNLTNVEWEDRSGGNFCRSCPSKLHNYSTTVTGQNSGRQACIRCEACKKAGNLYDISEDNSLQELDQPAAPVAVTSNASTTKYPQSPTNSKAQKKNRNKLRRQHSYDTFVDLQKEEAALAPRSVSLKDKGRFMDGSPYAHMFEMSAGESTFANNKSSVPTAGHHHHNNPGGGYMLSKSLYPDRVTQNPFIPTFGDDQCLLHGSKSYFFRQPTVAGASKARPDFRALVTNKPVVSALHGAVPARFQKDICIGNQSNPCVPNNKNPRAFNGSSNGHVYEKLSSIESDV
row,SMILES,pIC50
1,"Cc1cn(CC(=O)N2CCCC2)c2cc(-c3cccc(C(F)(F)F)c3F)cnc12 [Example 590, 2-[6-[2-Fluoro-3-(trifluoromethyl)phenyl]-3-methyl-pyrrolo[3,2-b]pyridin-1-yl]-1-pyrrolidin-1-yl-ethanone]",6.50
2,"Cc1cn(CC(=O)N2CCCC2)c2cc(-c3ccc(F)c(F)c3F)cnc12 [Example 591, 2-[3-Methyl-6-(2,3,4-trifluorophenyl)pyrrolo[3,2-b]pyridin-1-yl]-1-pyrrolidin-1-yl-ethanone]",6.90
3,"Cc1cn(CC(=O)N2CCC2)c2cc(-c3ccccc3F)cnc12 [Example 592, 1-(Azetidin-1-yl)-2-[6-(2-fluorophenyl)-3-methyl-pyrrolo[3,2-b]pyridin-1-yl]ethanone]",6.90
4,"Cc1cn(CC(=O)N(C)C)c2cc(-c3ccccc3F)cnc12 [Example 593, 2-[6-(2-Fluorophenyl)-3-methyl-pyrrolo[3,2-b]pyridin-1-yl]-N,N-dimethyl-acetamide]",6.60
5,"CCN(C)C(=O)Cn1cc(C)c2ncc(-c3ccccc3F)cc21 [Example 594, N-Ethyl-2-[6-(2-fluorophenyl)-3-methyl-pyrrolo[3,2-b]pyridin-1-yl]-N-methyl-acetamide]",6.10
6,"Cc1cn(CC(=O)N2CC(F)(F)C2)c2cc(-c3cccc(C(F)(F)F)c3F)cnc12 [Example 595, 1-(3,3-Difluoroazetidin-1-yl)-2-[6-[2-fluoro-3-(trifluoromethyl)phenyl]-3-methyl-pyrrolo[3,2-b]pyridin-1-yl]ethanone]",6.60
7,"Cc1cn(CC(=O)N2CC(F)(F)C2)c2cc(-c3ccc(F)c(F)c3F)cnc12 [Example 596, 1-(3,3-Difluoroazetidin-1-yl)-2-[3-methyl-6-(2,3,4-trifluorophenyl)pyrrolo[3,2-b]pyridin-1-yl]ethanone]",7.30
8,"Cc1cn(CC(=O)N2CC(F)(F)C2)c2cc(-c3ccccc3F)cnc12 [Example 597, 1-(3,3-Difluoroazetidin-1-yl)-2-[6-(2-fluorophenyl)-3-methyl-pyrrolo[3,2-b]pyridin-1-yl]ethanone]",6.50
9,"Cc1cn(CC(=O)N2CC(F)C2)c2cc(-c3cc(F)c(F)c(F)c3)cnc12 [Example 598, 1-(3-Fluoroazetidin-1-yl)-2-[3-methyl-6-(3,4,5-trifluorophenyl)pyrrolo[3,2-b]pyridin-1-yl]ethanone]",7.40
10,"Cc1cc(-c2cnc3c(Cl)cn(CC(=O)N(C)C)c3c2)c(C)s1 [Example 599, 2-[3-Chloro-6-(2,5-dimethyl-3-thienyl)pyrrolo[3,2-b]pyridin-1-yl]-N,N-dimethyl-acetamide]",7.00
11,"CN(C)C(=O)Cn1cc(Cl)c2ncc(-c3cccc(C(F)(F)F)c3)cc21 [Example 600, 2-[3-Chloro-6-[3-(trifluoromethyl)phenyl]pyrrolo[3,2-b]pyridin-1-yl]-N,N-dimethyl-acetamide]",7.10
12,"CN(C)C(=O)Cn1cc(Cl)c2ncc(-c3cccc(C(F)(F)F)n3)cc21 [Example 601, 2-[3-Chloro-6-[6-(trifluoromethyl)-2-pyridyl]pyrrolo[3,2-b]pyridin-1-yl]-N,N-dimethyl-acetamide]",6.90
13,"Cc1cc(-c2cnc3c(Cl)cn(CC(=O)N(C)C)c3c2)sc1Cl [Example 602, 2-[3-Chloro-6-(5-chloro-4-methyl-2-thienyl)pyrrolo[3,2-b]pyridin-1-yl]-N,N-dimethyl-acetamide]",8.00
14,"CN(C)C(=O)Cn1cc(Cl)c2ncc(-c3ccc(C(F)(F)F)s3)cc21 [Example 603, 2-[3-Chloro-6-[5-(trifluoromethyl)-2-thienyl]pyrrolo[3,2-b]pyridin-1-yl]-N,N-dimethyl-acetamide]",7.20
15,"CN(C)C(=O)Cn1ccc2ncc(-c3cc4ccccc4s3)cc21 [Example 604, 2-[6-(Benzothiophen-2-yl)pyrrolo[3,2-b]pyridin-1-yl]-N,N-dimethyl-acetamide]",6.70
16,"CN(C)C(=O)Cn1cc(F)c2ncc(-c3ccc(F)c(C(F)(F)F)c3)cc21 [Example 605, 2-[3-Fluoro-6-[4-fluoro-3-(trifluoromethyl)phenyl]pyrrolo[3,2-b]pyridin-1-yl]-N,N-dimethyl-acetamide]",7.20
17,"CN(C)C(=O)Cn1cc(F)c2ncc(-c3cccc(Cl)c3F)cc21 [Example 606, 2-[6-(3-Chloro-2-fluoro-phenyl)-3-fluoro-pyrrolo[3,2-b]pyridin-1-yl]-N,N-dimethyl-acetamide]",7.20
18,"Cc1cccc(-c2cnc3c(F)cn(CC(=O)N4CC(F)C4)c3c2)c1 [Example 607, 1-(3-Fluoroazetidin-1-yl)-2-[3-fluoro-6-(m-tolyl)pyrrolo[3,2-b]pyridin-1-yl]ethanone]",7.40
19,"O=C(Cn1cc(F)c2ncc(-c3ccc(F)c(Cl)c3)cc21)N1CC(F)C1 [Example 608, 2-[6-(3-Chloro-4-fluoro-phenyl)-3-fluoro-pyrrolo[3,2-b]pyridin-1-yl]-1-(3-fluoroazetidin-1-yl)ethanone]",7.70
20,"CN(C)C(=O)Cn1cc(C(F)(F)F)c2ncc(-c3cc(F)cc(F)c3)cc21 [Example 611, 2-[6-(3,5-Difluorophenyl)-3-(trifluoromethyl)pyrrolo[3,2-b]pyridin-1-yl]-N,N-dimethyl-acetamide]",8.00
21,"FC(F)(F)c1cccc(-c2cnc3c(Cl)cn(Cc4cccnc4)c3c2)c1 [Example 612, 3-Chloro-1-(3-pyridylmethyl)-6-[3-(trifluoromethyl)phenyl]pyrrolo[3,2-b]pyridine]",7.50
22,"FC(F)(F)c1cccc(-c2cnc3ccn(Cc4cccnn4)c3c2)c1 [Example 613, 1-(Pyridazin-3-ylmethyl)-6-[3-(trifluoromethyl)phenyl]pyrrolo[3,2-b]pyridine]",5.60
23,"Cc1cc(-c2cnc3c(Cl)cn(Cc4cccnn4)c3c2)ccc1F [Example 614, 3-Chloro-6-(4-fluoro-3-methyl-phenyl)-1-(pyridazin-3-ylmethyl)pyrrolo[3,2-b]pyridine]",7.50
24,"FC(F)(F)c1cccc(-c2cnc3c(Cl)cn(Cc4cccnn4)c3c2)c1 [Example 615, 3-Chloro-1-(pyridazin-3-ylmethyl)-6-[3-(trifluoromethyl)phenyl]pyrrolo[3,2-b]pyridine]",7.60
25,"Cc1cc(-c2cnc3c(C)cn(CC(=O)N4CCCC4)c3c2)ccc1F [Example 616, 2-[6-(4-Fluoro-3-methyl-phenyl)-3-methyl-pyrrolo[3,2-b]pyridin-1-yl]-1-pyrrolidin-1-yl-ethanone]",7.50
26,"CCN(C)C(=O)Cn1cc(C)c2ncc(-c3ccc(F)c(C)c3)cc21 [Example 617, N-Ethyl-2-[6-(4-fluoro-3-methyl-phenyl)-3-methyl-pyrrolo[3,2-b]pyridin-1-yl]-N-methyl-acetamide]",7.30
27,"Cc1cc(-c2cnc3c(C)cn(CC(=O)N4CC(F)(F)C4)c3c2)ccc1F [Example 618, 1-(3,3-Difluoroazetidin-1-yl)-2-[6-(4-fluoro-3-methyl-phenyl)-3-methyl-pyrrolo[3,2-b]pyridin-1-yl]ethanone]",7.50
28,"Cc1cn(CC(=O)N2CCCC2)c2cc(-c3ccc(F)c(F)c3)cnc12 [Example 619, 2-[6-(3,4-Difluorophenyl)-3-methyl-pyrrolo[3,2-b]pyridin-1-yl]-1-pyrrolidin-1-yl-ethanone]",7.40
29,"CCN(C)C(=O)Cn1cc(C)c2ncc(-c3ccc(F)c(F)c3)cc21 [Example 620, 2-[6-(3,4-Difluorophenyl)-3-methyl-pyrrolo[3,2-b]pyridin-1-yl]-N-ethyl-N-methyl-acetamide]",7.60
